One data set addresses T1, recombinant EWS-FLI1 (Homo sapiens, UniProt Q01543+Q01844).
T1 sequence (Q01543 1-452): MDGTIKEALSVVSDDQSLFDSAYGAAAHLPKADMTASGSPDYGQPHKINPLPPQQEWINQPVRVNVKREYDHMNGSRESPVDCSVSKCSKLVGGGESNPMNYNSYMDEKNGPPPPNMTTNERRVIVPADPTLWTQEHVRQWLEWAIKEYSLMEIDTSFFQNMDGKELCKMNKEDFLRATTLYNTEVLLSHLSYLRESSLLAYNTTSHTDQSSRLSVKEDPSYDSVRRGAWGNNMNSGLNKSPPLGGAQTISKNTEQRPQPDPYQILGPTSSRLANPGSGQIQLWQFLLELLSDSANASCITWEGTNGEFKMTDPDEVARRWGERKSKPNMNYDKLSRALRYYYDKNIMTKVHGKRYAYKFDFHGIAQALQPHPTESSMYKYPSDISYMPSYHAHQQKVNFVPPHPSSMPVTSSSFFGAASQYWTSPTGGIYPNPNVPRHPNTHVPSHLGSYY
T1 sequence (Q01844 1-656): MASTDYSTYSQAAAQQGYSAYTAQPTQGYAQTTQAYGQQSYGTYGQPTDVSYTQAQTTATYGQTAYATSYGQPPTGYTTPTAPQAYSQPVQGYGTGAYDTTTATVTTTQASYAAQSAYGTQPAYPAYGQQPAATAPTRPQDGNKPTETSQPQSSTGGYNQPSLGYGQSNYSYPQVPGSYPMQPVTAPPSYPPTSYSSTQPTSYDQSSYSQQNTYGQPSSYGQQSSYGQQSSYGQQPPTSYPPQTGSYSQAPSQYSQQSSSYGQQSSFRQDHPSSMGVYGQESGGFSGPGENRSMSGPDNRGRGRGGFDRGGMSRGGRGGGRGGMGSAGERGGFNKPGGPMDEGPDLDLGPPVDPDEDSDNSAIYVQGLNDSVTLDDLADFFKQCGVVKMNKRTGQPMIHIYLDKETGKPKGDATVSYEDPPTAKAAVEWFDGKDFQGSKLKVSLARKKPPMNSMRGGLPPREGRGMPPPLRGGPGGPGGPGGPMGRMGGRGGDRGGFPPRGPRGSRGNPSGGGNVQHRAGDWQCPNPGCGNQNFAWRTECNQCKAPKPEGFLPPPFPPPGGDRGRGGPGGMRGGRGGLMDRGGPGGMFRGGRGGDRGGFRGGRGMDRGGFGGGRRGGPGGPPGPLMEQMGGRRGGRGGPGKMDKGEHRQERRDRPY
Briefly: Surface plasmon resonance (Biacore) binding to EWS-FLI1. As to conditions: read-out: KD. As for the experimental part:
Antp is conjugated to the amino terminal of all peptides used in these studies. Recombinant EWS-FLI1 (MW 55 kDa) was covalently linked to a CM5 chip at a density of 1200 RU, and E9RP (MW 4 kDa) was evaluated for binding. The E9RP analyte concentrations ranged from 0.03-30 μM, and all are shown in duplicate. E9RP bound to EWS-FLI1 with a KD of 4.0 μM.
An assay that will identify whether a peptide can disrupt RHA from interacting with EWS-FLI1 was developed. The Biacore device is a biosensor that utilizes surface plasmon resonance (SPR) to measure the strength of molecular interactions. SPR is the sensitive measurement of […] light based upon alterations of surface characteristics that change with molecules binding to a surface. The Biacore device combines SPR with a microfluidic system.
The KD of E9RP binding to EWS-FLI1 was calculated to be 4.0 μM (FIG. 4).
A surface plasmon resonance assay using the Biacore T100 was established with EWS-FLI1, prepared in our laboratory as previously published (Uren, A., Tcherkasskaya, O. & Toretsky, J. A. Recombinant EWS-FLI1 oncoprotein activates transcription. Biochemistry 43, 13579-13589 (2004)). DNA oligonucleotides were used to quality control the proper conformation of EWS-FLI1 on the surface of a CM5 chip. Small molecules obtained from the Developmental Therapeutics Program of the National Cancer Institute, NIH (http://dtp.nci.nih.gov/branches/dscb/repo_open.html) were prioritized based upon their molecular weight and solubility. An initial screening of molecules was performed at 1 or 10 μM compound, based on solubility. We used a model that compares the actual binding maximum (actual RU) with the theoretical binding maximum (RUtheor). […] Hits (RUactual to RUtheor of 0.7-2.0) were then reviewed by a team of medicinal chemists and those with structural potentials were selected for further study. Selected molecules were tested in vitro in a solution coimmunoprecipitation assay using recombinant EWS-FLI1 and GST-RHA (647-1075).

The next data set concerns ESFT cells TC71. Briefly: Xenografts of TC71 cells transfected with E9R expression plasmids. Type of data set: in vivo, mice. To be noted: mutated control peptide vs wild-type. As for the experimental part: ESFT cells TC71 were transfected with pGE9R (wild-type sequence peptide (SEQ ID NO: 29)) or pGE9R-D5A (control, mutated peptide; D5A (SEQ ID NO: 31)). In FIG. 10A, fluorescent micrographs of transfected cells after 4 days in culture are presented. […] Bar equals 300 microns. In FIG. 10B, each group contains six mice. Mice legs were measured every 2-3 days. Tumors appeared in 2 weeks. The experiment was terminated after 26 days when the largest tumor caused the mouse to limp. Tumor volumes were calculated according to (D×d2/6)×π formula, where large diameter of tumor mass is D and small diameter is d. 2-way ANOVA analysis, followed by Bonferroni correction for multiple variables, the difference in the two growth curves was highly significant, p=0.016.
The ability of the E9R peptide sequence to prevent ESFT tumorigenesis in a pilot murine xenograft experiment was determined. As a control peptide, the same mutation that prevented wild-type RHA from binding to EWS-FLI1 (D827A, noted in the 10-mer peptide as E9R-D5A) was created. ESFT cells were transfected with either pGE9R or pGE9R-D5A by electroporation. A transfection efficiency of greater than 80% using fluorescent microscopy (FIG. 10A) was observed. […] Every two to three days, each animal's thigh was measured in three dimensions, and tumor volumes were calculated. […]

The next data set has as its system TC32 cells. Briefly: Monolayer cell growth (MTT or WST), TC32. Type of data set: cell-based. As to conditions: TC32 monolayer, 10 μM. As for the experimental part: (§1) In FIG. 13A, recombinant EWS-FLI1 was treated with NSC635437 for 30 minutes. GST-RHA (630-1020) was added and the complexes were then precipitated with antibody to EWS-FLI1 and Protein G beads. Resolved complexes showing the immunoprecipitated complex control without compound are in lanes 3 (0.1% DMSO) and 5 (0.01% DMSO). […] ESFT TC32 (◯) and neuroblastoma SK-N-AS (▪) were grown for 72 hours in the continuous presence of NSC635437. Cells were incubated in MTT reagent for 4 hours and the dried precipitate was dissolved isopropanol and the absorbance read at 570 nm. Each cell line was standardized to the growth of the DMSO control.
(§2) FIG. 30 provides data to show E9R peptide prevents EWS-FLI1 binding to RHA with specific detrimental effects upon ESFT growth and transformation. […] Scale bar equals 20 μm. […] Only expression of EGFP-E9R in TC71 reduced anchorage independent growth. […] Scale bar equals 20 μm.
FIG. 33 provides data showing YK-4-279 is potent and specific inhibitor of ESFT. […] Cell number was measured by MTT or WST reduction after seven days in culture. […] FIG. 33D cell lines expressing EWS-FLI1 compared to non-EWS-FLI1 malignant cell lines following 3 days in culture to establish the IC50 using WST assay. […] Graph plots level of fluorescence in treated divided by untreated lysate. […] Scale bar equals 200 μm.

Data set [1] concerns neuroblastoma SKNAS cells. Briefly: Monolayer cell growth, neuroblastoma. As to conditions: SKNAS monolayer. The format is cell-based.
Text: FIGS. 8A-E show E9RP inhibits ESFT cell growth. In FIGS. 8A and 8B, E9RP is the peptide region of RHA (SEQ ID NO:29) fused to the Penetratin peptide (from the Antennapedia homeodomain; SEQ ID NO:34) and contains amino-terminal fluorescein (FITC). […] Neither lipids nor electricity were used for transduction of peptides into cells. Confocal microscopy identified peptide throughout cells with nuclear uptake. Nuclear uptake was confirmed by DAPI staining. […] Cell lines were placed in 96-well plates with either vehicle alone (●), or E9RP (10 μM) on days 0, 3 and 5 (▴). No lipid or other transfection method was utilized. This represents two experiments with similar results. FIG. 8D depicts dose response of ESFT 1 to either wild-type or single amino-acid mutant peptides. (▪) wild-type E9RP, (E9R (SEQ ID NO:29) fused to the Penetratin peptide (SEQ ID NO:34)), (▾)(E9RP (P2A peptide (SEQ ID NO:30) fused to the Penetratin peptide (SEQ ID NO:34)), (▴)E9RP (D5A peptide (SEQ ID NO:31) fused to the Penetratin peptide (SEQ ID NO:34)). Growth normalized to treating cells with the 16 aa Antp sequence alone (SEQ ID NO:34). FIG. 8E is a comparison of wild-type versus mutant peptides in ESFT and NB cells.
as §1, §2

Seven compounds from patent US9045415B2, “Targeting of EWS-FLI1 as anti-tumor therapy” (Georgetown University, priority 2006, dated 2015) can be followed below.

Where two headings read alike, the source gives them in different places. No end group written: not given here. *: point of attachment. FITC = O=C1OC2(c3ccc(O)cc3Oc3cc(O)ccc32)c2ccc(NC(=S)*)cc21

For the compound `O=C(CC1(O)C(=O)N(Cc2ccccc2)c2c(Cl)ccc(Cl)c21)c1ccc(Cl)cc1` (centres unmarked) [YK-4-276, 1-Benzyl-4,7-dichloro-3-[2-(4-chlorophenyl-2-oxoethyl)]-3-hydroxyl-1,3-dihydroindol-2-one], the melting point (as a rule, the temperature of the solid-liquid transition) is 154 to 156 °C. For the same compound, the dissociation constant (Kd) (commonly the concentration at which binding is half-saturated) on recombinant EWS-FLI1 (FIG. 24 experiment) came out at 10.2 µM.
`Cc1ccc(C(=O)CC2(O)C(=O)Nc3c(Cl)ccc(Cl)c32)cc1` (centres unmarked) [YK-4-280, 4,7-Dichloro-3-hydroxyl-3-(2-oxo-2-p-tolylethyl)-1,3-dihydroindol-2-one] gave a melting point of 189 to 192 °C.
`Nc1ccc(C(=O)CC2(O)C(=O)Nc3c(Cl)ccc(Cl)c32)cc1` (centres unmarked) [YK-4-284, 3-[2-(4-Aminophenyl-2-oxoethyl)]-4,7-dichloro-3-hydroxyl 1,3-dihydroindol-2-one] displayed a melting point of 240 to 243 °C.
With `O=C(CC1(O)C(=O)Nc2c(Cl)ccc(Cl)c21)c1ccccc1` (centres unmarked) [YK-4-285, 4,7-Dichloro-3-hydroxyl-3-(2-oxo2-phenylethyl)-1,3-dihydroindol-2-one], the melting point was 198 to 200 °C.
On to `O=C(CC1(O)C(=O)Nc2c(Cl)ccc(Cl)c21)c1ccc(O)cc1` (centres unmarked) [YK-4-289, 4,7-Dichloro-3-hydroxyl-3-[2-(4-hydroxyphenyl-2-oxoethyl)]-1,3-dihydroindol-2-one], for which the melting point lay in the range of 240 to 242 °C. Moreover, the Kd at recombinant EWS-FLI1 (FIG. 23 experiment) stood at 6.82 µM. For the same compound, the Kd at recombinant EWS-FLI1 (FIG. 24 experiment) is 9.3 µM.
For the compound “PPPLAAVIEA [E9R-D5A, control, mutated peptide D5A, expressed from pGE9R-D5A, reference compound]”, the “tumor take-rate and rate of growth” value with ESFT cells TC71 is “greater”.
As for “[FITC]-RQIKIWFQNRRMKWKKPPPLAAVIEA ({FITC}-RQIKIWFQNRRMKWKKPPPLAAVIEA) [E9R(D5A), Antennapedia-E9R-D5A, mutated control peptide, reference compound]”, the “ESFT cell growth with fluorescein conjugated peptides” value in the data set on TC32 cells is given as “neither the D5A mutated control nor antennapedia peptides alone reduced ESFT cell growth”. The “growth of neuroblastoma cells with fluorescein conjugated peptides” value in data set [1] is “slight increase”.
